# Assay results taken from patent publication US20230391765A1, “HETEROBIFUNCTIONAL COMPOUNDS AS DEGRADERS OF ENL” (ICAHN SCHOOL OF MEDICINE AT MOUNT SINAI, priority 2020, published 2023).
# Columns and labels:
# [1] = tested on: ENL-dependent MV4; 11 cells; experiment: Cell viability (CellTiter-Glo), MV4; 11 cells; type: cell-based; conditions: 11 cells, 0.5, 1, 2 and 4 μM for 72 h
# Outline: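 MV4;11 cells (ENL-dependent) were seeded at 2×10^5 cells/mL and exposed to compound or DMSO, mostly for 72 h, with some runs at 3 or 6 days. Concentrations ranged from 10 nM to 10 μM depending on the run. Viability was read by CellTiter-Glo luminescence and normalized to DMSO.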
# MOLM13 cells = experiment: Apoptosis assay (FITC Annexin V), MOLM13 cells; type: cell-based; conditions: MOLM13 cells, 1, 2 and 4 μM for 24 h
# Description: Apoptotic cells were measured by the FITC Annexin V Apoptosis Detection Kit (BD Biosciences).
# MV4; 11 or MOLM13 cells were seeded at 0.2×10^6 cells/mL density. Cells were treated with DMSO or ENL degraders at indicated concentrations. Each treatment was done in triplicates. After 24 h treatment, cells were collected and washed with ice-cold PBS once and resuspended in 250 μL of 1× binding buffer containing 5 μL of FITC-Annexin V and PI (BD Biosciences). After 15 min incubation at room temperature in the dark, 250 μL of 1× binding buffer was added and flow cytometry analysis was performed.
# MV4; 11-Luc cells = experiment: MV4; 11 disseminated xenograft model, bioluminescence imaging; type: in vivo; conditions: NSG mice with MV4, 100 mg/kg twice daily IP, three cycles (4 treatment days, 2 resting days)
# Description: Immuno-deficient NSG mice were irradiated and transplanted with 5×10^5 MV4; 11-Luc cells through tail-vein injections. Ten days after transplantation, mice (n=5) were treated with 100 mg/kg LQ076-122 or vehicle twice daily through IP injection in cycles. Each cycle contains 4 treatment days followed by 2 resting days. Day 0 is the time that the treatment started. Leukemia progression was monitored by bioluminescence imaging at different time points upon LQ076-122 or vehicle treatment (FIG. 18A). The mean radiances of bioluminescence signal were quantified in FIG. 18B.
# Immunodeficient NOD.Cg-Prkdc^scidIl2rg^tm1wil/SzJ (NSG) mice at 6-8 weeks of age were produced at the Van Andel Institute Vivarium and Transgenic Core using breeders purchased from the Jackson laboratory. Mice were pretreated with acidified water and antibiotics for a week before a sublethal dose of total body irradiated (2 Gy). Then mice were transplanted with 0.5×10^6 MV4; 11-Luc cells through tail-vein injection. ENL degrader treatment was started ten days after transplantation with the successful engraftment confirmed by bioluminescence imaging. Mice were randomly assigned to two groups (n=5) and treated with IP injections of either ENL degrader LQ076-122 (100 mg/kg, twice daily) or vehicle. […] Leukemia progression in each animal was monitored by bioluminescence imaging after each treatment cycle. […]
smiles,measurement,setting,value
"Cc1ncsc1-c1ccc(CNC(=O)[C@@H]2C[C@@H](O)CN2C(=O)[C@@H](NC(=O)CCCCCCCCCCNC(=O)c2ccc(C(=O)Nc3ccc4[nH]c(CN5CCC[C@@H]5C)nc4c3)cc2)C(C)(C)C)cc1 [LQ076-122, N^1-(11-(((S)-1-((2S,4R)-4-hydroxy-2-((4-(4-methylthiazol-5-yl)benzyl)carbamoyl)pyrrolidin-1-yl)-3,3-dimethyl-1-oxobutan-2-yl)amino)-11-oxoundecyl)-N^4-(2-(((S)-2-methylpyrrolidin-1-yl)methyl)-1H-benzo[d]imidazol-5-yl)terephthalamide]",suppression of cell growth (relative cell viability),[1],selectively suppressed cell growth
same,induction of apoptosis,MOLM13 cells,induced apoptosis
same,leukemia progression,MV4; 11-Luc cells,significantly inhibited leukemia progression
